Experiments:
Assay in all cases: biochemical
Set-up in all cases: KINOMEscan competition binding panel (Eurofins DiscoverX), single concentration, % inhibition
Details in all cases: read-out: 7 at 1 µM % inhibition
[1] = biological target: T1, ABL1(T315I)-phosphorylated (Homo sapiens, UniProt P00519, T315I)
T1 construct: phosphorylated
How it was run: (§1)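 Kinome-wide profiling (KINOMEscan, >400 human kinases) was run at 1 µM compound.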

ALK(L1196M) = ALK(L1196M) (Homo sapiens, UniProt Q9UM73, L1196M)
How it was run: as §1

AMPK-alpha2 = biological target: T2, AMPK-alpha2 (Homo sapiens, UniProt P54646)
T2 construct: gene PRKAA2
How it was run: as §1

AURKC = AURKC (Homo sapiens, UniProt Q9UQB9)
How it was run: as §1

BMX = BMX (Homo sapiens, UniProt P51813)
How it was run: as §1

CDC2L1 = biological target: T3, CDC2L1 (Homo sapiens, UniProt P21127)
T3 construct: gene CDK11B
How it was run: as §1

CDK2 = CDK2 (Homo sapiens, UniProt P24941)
How it was run: as §1

CSNK1A1 = CSNK1A1 (Homo sapiens, UniProt P48729)
How it was run: as §1

GRK4 = GRK4 (Homo sapiens, UniProt P32298)
How it was run: as §1

KIT(V559D,V654A) = KIT(V559D,V654A) (Homo sapiens, UniProt P10721, V559D/V654A)
How it was run: as §1

MAP3K1 = MAP3K1 (Homo sapiens, UniProt Q13233)
How it was run: as §1

MERTK = MERTK (Homo sapiens, UniProt Q12866)
How it was run: as §1

MINK = biological target: T4, MINK (Homo sapiens, UniProt Q8N4C8)
T4 construct: gene MINK1
How it was run: as §1

MYLK = MYLK (Homo sapiens, UniProt Q15746)
How it was run: as §1

NEK7 = NEK7 (Homo sapiens, UniProt Q8TDX7)
How it was run: as §1

OSR1 = biological target: T5, OSR1 (Homo sapiens, UniProt O95747)
T5 construct: gene OXSR1
How it was run: as §1

PIK3C2G = PIK3C2G (Homo sapiens, UniProt O75747)
How it was run: as §1

PIK3CA(E545K) = PIK3CA(E545K) (Homo sapiens, UniProt P42336, E545K)
How it was run: as §1

PIK3CB = PIK3CB (Homo sapiens, UniProt P42338)
How it was run: as §1

PIKFYVE = PIKFYVE (Homo sapiens, UniProt Q9Y2I7)
How it was run: as §1

[2] = biological target: T6, RPS6KA5(Kin.Dom.1-N-terminal) (Homo sapiens, UniProt O75582)
T6 construct: Kin.Dom.1-N-terminal
How it was run: as §1

SBK1 = SBK1 (Homo sapiens, UniProt Q52WX2)
How it was run: as §1

TAOK2 = TAOK2 (Homo sapiens, UniProt Q9UL54)
How it was run: as §1

YES = biological target: T7, YES (Homo sapiens, UniProt P07947)
T7 construct: gene YES1
How it was run: as §1

TAOK2, sequence (Q9UL54 whole entry): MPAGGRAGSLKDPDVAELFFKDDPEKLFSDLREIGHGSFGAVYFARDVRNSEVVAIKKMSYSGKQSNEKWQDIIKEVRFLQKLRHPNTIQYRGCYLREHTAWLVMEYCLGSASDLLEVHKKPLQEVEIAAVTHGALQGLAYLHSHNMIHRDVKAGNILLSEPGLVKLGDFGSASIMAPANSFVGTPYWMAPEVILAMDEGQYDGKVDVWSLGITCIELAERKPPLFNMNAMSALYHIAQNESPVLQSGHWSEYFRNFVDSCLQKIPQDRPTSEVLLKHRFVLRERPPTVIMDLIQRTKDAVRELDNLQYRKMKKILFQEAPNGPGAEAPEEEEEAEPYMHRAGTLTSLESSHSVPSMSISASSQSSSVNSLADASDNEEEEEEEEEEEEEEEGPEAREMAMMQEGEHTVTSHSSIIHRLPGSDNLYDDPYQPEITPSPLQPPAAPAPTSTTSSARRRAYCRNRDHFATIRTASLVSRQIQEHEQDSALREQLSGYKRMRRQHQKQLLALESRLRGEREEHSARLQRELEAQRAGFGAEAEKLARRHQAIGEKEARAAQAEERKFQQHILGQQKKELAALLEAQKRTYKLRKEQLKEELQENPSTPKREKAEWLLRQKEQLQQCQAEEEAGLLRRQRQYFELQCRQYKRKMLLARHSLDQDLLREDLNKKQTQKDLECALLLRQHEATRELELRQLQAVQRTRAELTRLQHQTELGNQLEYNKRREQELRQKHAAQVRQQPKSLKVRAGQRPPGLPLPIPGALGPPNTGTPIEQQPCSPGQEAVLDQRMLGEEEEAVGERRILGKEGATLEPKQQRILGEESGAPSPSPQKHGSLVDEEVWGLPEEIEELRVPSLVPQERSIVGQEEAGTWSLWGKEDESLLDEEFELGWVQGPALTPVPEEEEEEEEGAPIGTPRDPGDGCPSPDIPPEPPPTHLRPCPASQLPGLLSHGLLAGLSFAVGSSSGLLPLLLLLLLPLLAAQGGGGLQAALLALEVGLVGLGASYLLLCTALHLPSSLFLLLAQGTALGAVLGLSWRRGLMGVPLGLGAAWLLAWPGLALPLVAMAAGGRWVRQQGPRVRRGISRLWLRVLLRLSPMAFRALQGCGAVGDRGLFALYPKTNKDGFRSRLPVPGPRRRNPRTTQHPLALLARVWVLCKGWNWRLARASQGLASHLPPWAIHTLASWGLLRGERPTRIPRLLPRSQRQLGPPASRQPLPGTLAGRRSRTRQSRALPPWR
GRK4, sequence (P32298 whole entry): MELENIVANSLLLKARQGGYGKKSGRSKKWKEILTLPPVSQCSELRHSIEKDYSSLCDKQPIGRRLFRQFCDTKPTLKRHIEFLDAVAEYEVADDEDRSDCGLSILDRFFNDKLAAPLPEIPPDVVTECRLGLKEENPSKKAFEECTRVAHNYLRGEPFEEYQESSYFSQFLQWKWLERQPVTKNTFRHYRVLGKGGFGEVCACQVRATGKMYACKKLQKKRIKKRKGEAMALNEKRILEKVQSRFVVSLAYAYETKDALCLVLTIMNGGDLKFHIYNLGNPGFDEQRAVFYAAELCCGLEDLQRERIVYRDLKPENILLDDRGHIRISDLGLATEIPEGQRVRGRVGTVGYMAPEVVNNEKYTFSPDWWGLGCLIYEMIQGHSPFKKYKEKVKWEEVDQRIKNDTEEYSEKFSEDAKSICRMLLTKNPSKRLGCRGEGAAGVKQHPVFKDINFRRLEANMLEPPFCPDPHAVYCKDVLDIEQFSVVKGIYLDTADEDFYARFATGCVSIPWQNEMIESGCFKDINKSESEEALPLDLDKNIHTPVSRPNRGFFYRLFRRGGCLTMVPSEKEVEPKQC
T6 sequence (O75582 whole entry): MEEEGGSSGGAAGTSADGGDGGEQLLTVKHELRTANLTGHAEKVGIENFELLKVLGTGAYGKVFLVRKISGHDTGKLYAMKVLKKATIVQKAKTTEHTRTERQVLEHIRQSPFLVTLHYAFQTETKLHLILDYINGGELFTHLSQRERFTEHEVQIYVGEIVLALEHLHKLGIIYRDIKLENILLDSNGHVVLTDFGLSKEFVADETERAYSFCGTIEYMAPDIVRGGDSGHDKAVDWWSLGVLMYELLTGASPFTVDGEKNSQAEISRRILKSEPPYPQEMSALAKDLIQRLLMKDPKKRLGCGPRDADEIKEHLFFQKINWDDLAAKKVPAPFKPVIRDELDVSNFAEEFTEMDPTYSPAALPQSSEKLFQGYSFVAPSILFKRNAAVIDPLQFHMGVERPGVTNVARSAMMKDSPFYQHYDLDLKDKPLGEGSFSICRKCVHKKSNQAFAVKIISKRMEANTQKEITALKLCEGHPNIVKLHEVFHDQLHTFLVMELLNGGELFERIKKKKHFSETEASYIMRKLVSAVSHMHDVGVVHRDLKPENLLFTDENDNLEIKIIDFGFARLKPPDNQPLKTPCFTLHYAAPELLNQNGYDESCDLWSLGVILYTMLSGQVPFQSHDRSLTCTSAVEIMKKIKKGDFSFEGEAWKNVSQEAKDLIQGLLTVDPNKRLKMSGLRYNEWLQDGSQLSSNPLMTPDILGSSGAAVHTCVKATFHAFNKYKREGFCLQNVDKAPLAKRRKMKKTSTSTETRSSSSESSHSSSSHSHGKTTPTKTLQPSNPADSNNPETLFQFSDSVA
NEK7, sequence (Q8TDX7 whole entry): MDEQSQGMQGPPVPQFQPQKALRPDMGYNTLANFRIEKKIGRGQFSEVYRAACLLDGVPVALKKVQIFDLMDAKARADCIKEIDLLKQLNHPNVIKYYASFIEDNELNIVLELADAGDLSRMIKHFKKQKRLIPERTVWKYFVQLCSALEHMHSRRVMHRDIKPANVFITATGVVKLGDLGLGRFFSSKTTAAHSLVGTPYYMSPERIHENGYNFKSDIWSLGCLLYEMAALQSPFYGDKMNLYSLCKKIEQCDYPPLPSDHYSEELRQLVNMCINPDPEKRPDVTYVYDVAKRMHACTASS
T7 sequence (P07947 whole entry): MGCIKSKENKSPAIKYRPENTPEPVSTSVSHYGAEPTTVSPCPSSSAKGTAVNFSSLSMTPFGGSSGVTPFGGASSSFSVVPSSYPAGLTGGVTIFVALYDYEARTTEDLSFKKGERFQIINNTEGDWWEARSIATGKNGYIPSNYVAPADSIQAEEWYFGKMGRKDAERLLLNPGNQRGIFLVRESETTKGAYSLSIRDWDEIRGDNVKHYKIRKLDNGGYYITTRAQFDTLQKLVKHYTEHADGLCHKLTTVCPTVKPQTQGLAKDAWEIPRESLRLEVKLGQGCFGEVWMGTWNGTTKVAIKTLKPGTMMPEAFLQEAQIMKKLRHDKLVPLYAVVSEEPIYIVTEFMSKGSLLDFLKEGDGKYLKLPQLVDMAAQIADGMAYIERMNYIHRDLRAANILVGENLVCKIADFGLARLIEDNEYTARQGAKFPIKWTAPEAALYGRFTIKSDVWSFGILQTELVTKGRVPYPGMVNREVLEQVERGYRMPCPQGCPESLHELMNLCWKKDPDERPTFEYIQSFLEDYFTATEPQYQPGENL
T4 sequence (Q8N4C8 whole entry): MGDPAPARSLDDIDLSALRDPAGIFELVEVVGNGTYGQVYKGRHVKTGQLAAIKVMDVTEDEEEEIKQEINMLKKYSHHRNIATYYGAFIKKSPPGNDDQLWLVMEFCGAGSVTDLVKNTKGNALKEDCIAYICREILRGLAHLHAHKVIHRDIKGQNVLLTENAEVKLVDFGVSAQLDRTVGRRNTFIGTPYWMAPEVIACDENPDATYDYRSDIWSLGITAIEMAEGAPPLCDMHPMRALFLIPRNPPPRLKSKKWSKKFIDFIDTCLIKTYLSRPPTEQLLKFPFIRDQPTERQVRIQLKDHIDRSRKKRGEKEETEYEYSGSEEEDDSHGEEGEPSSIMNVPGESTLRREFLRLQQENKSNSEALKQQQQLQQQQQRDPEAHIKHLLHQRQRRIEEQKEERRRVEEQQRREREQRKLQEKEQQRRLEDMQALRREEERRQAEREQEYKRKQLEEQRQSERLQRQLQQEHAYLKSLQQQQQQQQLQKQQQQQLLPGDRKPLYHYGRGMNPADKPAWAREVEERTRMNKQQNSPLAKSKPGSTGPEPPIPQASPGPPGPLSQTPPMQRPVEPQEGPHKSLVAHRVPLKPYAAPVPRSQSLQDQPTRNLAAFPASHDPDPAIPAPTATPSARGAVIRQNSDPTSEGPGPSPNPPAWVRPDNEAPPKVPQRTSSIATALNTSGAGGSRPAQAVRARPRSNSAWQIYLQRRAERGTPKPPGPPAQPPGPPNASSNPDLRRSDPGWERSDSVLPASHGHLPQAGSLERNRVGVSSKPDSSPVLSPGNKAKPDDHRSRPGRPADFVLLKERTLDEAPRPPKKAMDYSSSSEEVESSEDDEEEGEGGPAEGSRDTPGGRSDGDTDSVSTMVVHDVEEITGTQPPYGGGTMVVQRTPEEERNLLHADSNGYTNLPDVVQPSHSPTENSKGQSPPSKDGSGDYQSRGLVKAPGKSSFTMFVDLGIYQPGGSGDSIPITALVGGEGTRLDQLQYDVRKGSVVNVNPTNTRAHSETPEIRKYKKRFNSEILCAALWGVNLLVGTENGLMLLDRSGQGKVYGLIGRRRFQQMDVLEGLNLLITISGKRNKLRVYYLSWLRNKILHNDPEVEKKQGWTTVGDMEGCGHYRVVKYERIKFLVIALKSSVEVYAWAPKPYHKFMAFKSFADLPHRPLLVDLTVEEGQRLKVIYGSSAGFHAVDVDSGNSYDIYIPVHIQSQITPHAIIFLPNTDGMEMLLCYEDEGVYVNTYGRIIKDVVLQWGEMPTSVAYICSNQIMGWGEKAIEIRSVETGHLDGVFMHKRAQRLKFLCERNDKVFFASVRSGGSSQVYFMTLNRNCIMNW

Work on `CNS(=O)(=O)c1ccc(N(C)C)c(Nc2ncnc3cc(OC)c(OC)cc23)c1` [compound 7, 3-((6,7-dimethoxyquinazolin-4-yl)amino)-4-(dimethylamino)-N-methylbenzenesulfonamide] yielded an inhibition at 1 µM [1] of 0%, an inhibition at 1 µM (ALK(L1196M)) of 5% and an inhibition at 1 µM (AMPK-alpha2) of 12%. For the same molecule, the inhibition at 1 µM (AURKC) was 0%, the inhibition at 1 µM (BMX) was 0% and the inhibition at 1 µM (CDC2L1) was 0%. The inhibition at 1 µM (CDK2) was 0%, the inhibition at 1 µM (CSNK1A1) was 0% and the inhibition at 1 µM (GRK4) was 0%. It also gave an inhibition at 1 µM (KIT(V559D,V654A)) of 0%, an inhibition at 1 µM (MAP3K1) of 0% and an inhibition at 1 µM (MERTK) of 0%. For the same molecule, the inhibition at 1 µM (MINK) was 18%, the inhibition at 1 µM (MYLK) was 9% and the inhibition at 1 µM (NEK7) was 0%. For the same molecule, the inhibition at 1 µM (OSR1) was 22%, the inhibition at 1 µM (PIK3C2G) was 20% and the inhibition at 1 µM (PIK3CA(E545K)) was 5%. For the same molecule, the inhibition at 1 µM (PIK3CB) was 2%, the inhibition at 1 µM (PIKFYVE) was 7% and the inhibition at 1 µM [2] was 7%. The inhibition at 1 µM (SBK1) was 29%, the inhibition at 1 µM (TAOK2) was 20% and the inhibition at 1 µM (YES) was 0%.

Reference: article PMC7180948, “New Insights into 4-Anilinoquinazolines as Inhibitors of Cardiac Troponin I–Interacting Kinase (TNNi3K)” (Molecules, 2020)
